Source: ChEMBL document CHEMBL2375339, “Synthesis and evaluation of 7,8-dehydrorutaecarpine derivatives as potential multifunctional agents for the treatment of Alzheimer's disease” (Eur J Med Chem, 2013)
Activity calls are given as the source filed them. The calls are words filed in the database; no cut-off is given here.

Legend:
[1] = target: Cholinesterase (Equus caballus, UniProt P81908)
Description: Inhibition of horse serum butyrylcholinesterase using butylthiocholine as substrate incubated for 15 mins followed by substrate addition measured for 2 mins by Ellman's method

[2] = target: Acetylcholinesterase (Homo sapiens) (UniProt P22303); assay: Ratio of compound activity to tacrine activity for inhibition of acetylcholinesterase (unknown origin)-induced amyloid beta(1 to 42) aggregation
[3] = cells; settings: Homo sapiens, SH-SY5Y, 48 h
Description: Cytotoxicity against human SH-SY5Y cells assessed as cell viability after 48 hrs by MTT assay

[4] = target: Acetylcholinesterase (Electrophorus electricus, UniProt O42275)
Description: Inhibition of electric eel acetylcholinesterase using acetylthiocholine as substrate incubated for 15 mins followed by substrate addition measured for 2 mins by Ellman's method

[5] = target: Acetylcholinesterase (Electrophorus electricus) (UniProt O42275); assay: Inhibition of electric eel acetylcholinesterase using acetylthiocholine as substrate up to 100 uM incubated for 15 mins followed by substrate addition measured for 2 mins by Ellman's method relative to control
[6] = target: Acetylcholinesterase (Homo sapiens) (UniProt P22303); assay: Ratio of compound activity to curcumin activity for inhibition of acetylcholinesterase (unknown origin)-induced amyloid beta(1 to 42) aggregation
[7] = target: Acetylcholinesterase (Electrophorus electricus) (UniProt O42275); assay: Mixed-type inhibition of electric eel AChE using acetylthiocholine as substrate at 3.125 to 50 nM after 15 mins by Lineweaver-Burk plot analysis
[8] = target: Acetylcholinesterase (Electrophorus electricus) (UniProt O42275); assay: Ratio of tacrine IC50 to compound IC50 for electric eel acetylcholinesterase
[9] = target: Acetylcholinesterase (Electrophorus electricus) (UniProt O42275); assay: Mixed-type inhibition of electric eel AChE using acetylthiocholine as substrate at 0.125 to 2 nM after 15 mins by Lineweaver-Burk plot analysis
[10] = Metal chelating activity of the compound assessed as formation of iron complex at 20 uM after 30 mins by UV-vis spectrophotometric analysis; format: functional
[11] = Metal chelating activity of the compound assessed as formation of calcium complex at 20 uM after 30 mins by UV-vis spectrophotometric analysis; format: functional
[12] = Metal chelating activity of the compound assessed as formation of sodium complex at 20 uM after 30 mins by UV-vis spectrophotometric analysis; format: functional
[13] = Metal chelating activity of the compound assessed as formation of copper complex at 20 uM by molar ratio method; format: functional
[14] = Metal chelating activity of the compound assessed as formation of potassium complex at 20 uM after 30 mins by UV-vis spectrophotometric analysis; format: functional
[15] = Metal chelating activity of the compound assessed as formation of magnesium complex at 20 uM after 30 mins by UV-vis spectrophotometric analysis; format: functional
[16] = Metal chelating activity of the compound assessed as formation of copper complex at 20 uM after 30 mins by UV-vis spectrophotometric analysis; format: functional
[17] = Metal chelating activity of the compound assessed as formation of zinc complex at 20 uM after 30 mins by UV-vis spectrophotometric analysis; format: functional

Chain of Cholinesterase (P81908 whole entry): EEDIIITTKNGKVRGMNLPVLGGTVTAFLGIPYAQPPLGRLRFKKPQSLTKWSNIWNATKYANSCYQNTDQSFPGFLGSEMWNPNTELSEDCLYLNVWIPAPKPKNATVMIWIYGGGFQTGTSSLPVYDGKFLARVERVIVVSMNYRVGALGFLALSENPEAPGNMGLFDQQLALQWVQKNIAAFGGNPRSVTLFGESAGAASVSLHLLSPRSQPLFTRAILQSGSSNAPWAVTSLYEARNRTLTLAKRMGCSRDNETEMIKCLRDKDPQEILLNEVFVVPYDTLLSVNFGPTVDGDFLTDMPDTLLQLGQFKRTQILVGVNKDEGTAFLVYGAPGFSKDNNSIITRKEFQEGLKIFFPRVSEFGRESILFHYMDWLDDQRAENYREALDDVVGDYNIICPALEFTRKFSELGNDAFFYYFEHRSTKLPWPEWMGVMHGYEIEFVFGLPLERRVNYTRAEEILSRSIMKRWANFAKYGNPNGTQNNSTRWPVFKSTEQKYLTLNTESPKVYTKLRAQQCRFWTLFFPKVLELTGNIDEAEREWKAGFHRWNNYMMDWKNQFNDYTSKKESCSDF
Chain of Acetylcholinesterase (Electrophorus electricus) (O42275 24-633 limits assumed): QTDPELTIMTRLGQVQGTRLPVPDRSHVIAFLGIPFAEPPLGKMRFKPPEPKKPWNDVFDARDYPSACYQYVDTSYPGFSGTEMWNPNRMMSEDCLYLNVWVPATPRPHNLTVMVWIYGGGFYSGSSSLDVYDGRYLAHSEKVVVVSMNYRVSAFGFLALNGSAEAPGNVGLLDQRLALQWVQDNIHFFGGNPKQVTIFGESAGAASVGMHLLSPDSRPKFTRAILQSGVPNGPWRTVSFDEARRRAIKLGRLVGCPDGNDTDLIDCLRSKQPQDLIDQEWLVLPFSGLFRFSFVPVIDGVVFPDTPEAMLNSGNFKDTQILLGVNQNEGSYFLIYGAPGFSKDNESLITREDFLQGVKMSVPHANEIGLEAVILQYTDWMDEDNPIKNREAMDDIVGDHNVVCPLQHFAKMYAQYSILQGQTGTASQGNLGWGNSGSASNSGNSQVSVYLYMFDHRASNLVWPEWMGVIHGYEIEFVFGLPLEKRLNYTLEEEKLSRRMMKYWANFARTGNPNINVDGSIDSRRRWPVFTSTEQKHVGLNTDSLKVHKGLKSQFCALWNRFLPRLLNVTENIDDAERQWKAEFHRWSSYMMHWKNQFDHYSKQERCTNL
Chain of Acetylcholinesterase (O42275 whole entry): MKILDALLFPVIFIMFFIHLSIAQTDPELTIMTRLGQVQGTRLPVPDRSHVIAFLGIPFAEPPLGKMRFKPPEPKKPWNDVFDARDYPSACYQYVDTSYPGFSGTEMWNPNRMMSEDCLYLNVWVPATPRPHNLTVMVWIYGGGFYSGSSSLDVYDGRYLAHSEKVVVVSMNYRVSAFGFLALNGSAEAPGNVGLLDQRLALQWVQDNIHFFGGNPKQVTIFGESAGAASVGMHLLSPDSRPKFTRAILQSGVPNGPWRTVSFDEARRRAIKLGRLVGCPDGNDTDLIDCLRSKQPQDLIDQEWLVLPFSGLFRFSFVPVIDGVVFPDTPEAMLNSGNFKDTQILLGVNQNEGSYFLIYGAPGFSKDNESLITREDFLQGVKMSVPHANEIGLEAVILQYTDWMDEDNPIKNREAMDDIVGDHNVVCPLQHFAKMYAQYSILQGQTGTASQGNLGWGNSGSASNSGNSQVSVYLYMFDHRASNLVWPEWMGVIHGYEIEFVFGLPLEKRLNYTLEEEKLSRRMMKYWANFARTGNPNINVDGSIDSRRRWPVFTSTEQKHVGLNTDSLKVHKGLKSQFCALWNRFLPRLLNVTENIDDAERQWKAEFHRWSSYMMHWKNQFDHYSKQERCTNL
Chain of Acetylcholinesterase (Homo sapiens) (P22303 whole entry): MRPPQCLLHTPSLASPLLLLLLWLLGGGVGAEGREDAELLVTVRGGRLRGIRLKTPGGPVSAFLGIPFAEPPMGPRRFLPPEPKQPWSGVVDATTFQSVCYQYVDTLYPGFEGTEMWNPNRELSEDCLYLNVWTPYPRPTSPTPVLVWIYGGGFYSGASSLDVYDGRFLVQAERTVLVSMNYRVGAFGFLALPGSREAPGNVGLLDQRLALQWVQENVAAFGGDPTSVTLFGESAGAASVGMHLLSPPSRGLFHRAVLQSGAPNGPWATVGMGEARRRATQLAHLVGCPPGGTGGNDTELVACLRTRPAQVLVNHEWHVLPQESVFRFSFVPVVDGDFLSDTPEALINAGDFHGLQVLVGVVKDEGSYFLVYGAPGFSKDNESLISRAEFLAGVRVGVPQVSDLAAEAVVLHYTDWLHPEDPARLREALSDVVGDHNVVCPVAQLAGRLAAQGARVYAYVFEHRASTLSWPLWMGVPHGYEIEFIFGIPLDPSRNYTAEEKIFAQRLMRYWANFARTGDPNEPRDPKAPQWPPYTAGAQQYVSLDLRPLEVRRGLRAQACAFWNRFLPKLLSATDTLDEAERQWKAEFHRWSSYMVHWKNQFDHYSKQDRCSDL

SMILES | IC50 [1] | Ratio [2] | IC50 [3] | IC50 [4] | inhibition [5] | Ratio [6] | further results
O=C(CCN1CCCC1)Nc1ccc2nc3c4[nH]c5ccccc5c4ccn3c(=O)c2c1 | 14.9 µM | 15.3 | 21.2 µM | 0.0139 µM | 20% | 2.2 | inhibition [7]: Active
CN1CCN(CC(=O)Nc2ccc3nc4c5[nH]c6ccccc6c5ccn4c(=O)c3c2)CC1 | 29.1 µM | 15.3 | 8.6 µM | 0.158 µM | 20% | 2.2 | 
CN(C)CC(=O)Nc1ccc2nc3c4[nH]c5ccccc5c4ccn3c(=O)c2c1 | 26.5 µM | 15.3 | 4.1 µM | 0.0701 µM | 20% | 2.2 | 
Cn1cc[n+](CC(=O)Nc2ccc3nc4c5[nH]c6ccccc6c5ccn4c(=O)c3c2)c1 | 7.34 µM | 15.3 | > 100 µM | 0.008 µM | 20% | 2.2 | 
O=C(CN1CCCC1)Nc1ccc2nc3c4[nH]c5ccccc5c4ccn3c(=O)c2c1 | 14.4 µM | 15.3 | 2.9 µM | 0.0593 µM | 20% | 2.2 | 
O=C(COc1cccnc1)Nc1ccc2nc3c4[nH]c5ccccc5c4ccn3c(=O)c2c1 | 7.3 µM | 15.3 |  | 0.00309 µM | 20% | 2.2 | 
C[N+]1(CCC(=O)Nc2ccc3nc4c5[nH]c6ccccc6c5ccn4c(=O)c3c2)CCCC1 | 17.1 µM | 15.3 | 19.1 µM | 0.137 µM | 20% | 2.2 | 
O=C(CCOc1cccnc1)Nc1ccc2nc3c4[nH]c5ccccc5c4ccn3c(=O)c2c1 | 6.43 µM | 15.3 |  | 0.0143 µM | 20% | 2.2 | 
O=C(C[n+]1ccccc1)Nc1ccc2nc3c4[nH]c5ccccc5c4ccn3c(=O)c2c1 | 2.45 µM | 15.3 | > 100 µM | 0.0008 µM | 20% | 2.2 | Ratio IC50 [8]: 160
O=C(C[n+]1cccc(F)c1)Nc1ccc2nc3c4[nH]c5ccccc5c4ccn3c(=O)c2c1 | 1.86 µM | 15.3 | > 100 µM | 0.0006 µM | 20% | 2.2 | inhibition [9]: Active; Activity [10]: Active; Ratio IC50 [8]: 160; Activity [11]: inactive; Activity [12]: inactive; Activity [13]: Active; Activity [14]: inactive; Activity [15]: inactive; Activity [16]: Active; Activity [17]: Active
Cn1cc[n+](CCC(=O)Nc2ccc3nc4c5[nH]c6ccccc6c5ccn4c(=O)c3c2)c1 | 7.02 µM | 15.3 | > 100 µM | 0.0093 µM | 20% | 2.2 | 
O=C(CCNc1ccccc1)Nc1ccc2nc3c4[nH]c5ccccc5c4ccn3c(=O)c2c1 | 27.8 µM | 15.3 |  | 0.0875 µM | 20% | 2.2 | 
O=C(Cc1ccccc1)Nc1ccc2nc3c4[nH]c5ccccc5c4ccn3c(=O)c2c1 | 24.9 µM | 15.3 |  | 0.116 µM | 20% | 2.2 | 
Cn1cc[n+](CCCC(=O)Nc2ccc3nc4c5[nH]c6ccccc6c5ccn4c(=O)c3c2)c1 | 8.2 µM | 15.3 |  | 0.0117 µM | 20% | 2.2 | 
CN1CCN(CCC(=O)Nc2ccc3nc4c5[nH]c6ccccc6c5ccn4c(=O)c3c2)CC1 | 28.9 µM | 15.3 | 13.3 µM | 0.141 µM | 20% | 2.2 | 
O=C(CCCN1CCCC1)Nc1ccc2nc3c4[nH]c5ccccc5c4ccn3c(=O)c2c1 | 18.5 µM | 15.3 |  | 0.0846 µM | 20% | 2.2 | 

SMILES | IC50 [1] | Ratio [2] | IC50 [3] | IC50 [4] | inhibition [5] | Ratio [6] | further results
CCN(CC)CC(=O)Nc1ccc2nc3c4[nH]c5ccccc5c4ccn3c(=O)c2c1 | 24.1 µM | 15.3 | 2.3 µM | 0.0704 µM | 20% | 2.2 | 
O=C(CN1CCCCC1)Nc1ccc2nc3c4[nH]c5ccccc5c4ccn3c(=O)c2c1 | 23.2 µM | 15.3 | 6.3 µM | 0.07 µM | 20% | 2.2 | 
O=C(CCc1ccccc1)Nc1ccc2nc3c4[nH]c5ccccc5c4ccn3c(=O)c2c1 | 26.1 µM | 15.3 |  | 0.108 µM | 20% | 2.2 | 
CN(C)CCC(=O)Nc1ccc2nc3c4[nH]c5ccccc5c4ccn3c(=O)c2c1 | 21.4 µM | 15.3 | 5.5 µM | 0.0561 µM | 20% | 2.2 | 
O=C(CCC[n+]1ccccc1)Nc1ccc2nc3c4[nH]c5ccccc5c4ccn3c(=O)c2c1 | 4.16 µM | 15.3 |  | 0.0039 µM | 20% | 2.2 | 
O=C(CC[n+]1cccc(F)c1)Nc1ccc2nc3c4[nH]c5ccccc5c4ccn3c(=O)c2c1 | 3.49 µM | 15.3 | > 100 µM | 0.0021 µM | 20% | 2.2 | 
CCN(CC)CCC(=O)Nc1ccc2nc3c4[nH]c5ccccc5c4ccn3c(=O)c2c1 | 28.3 µM | 15.3 | 12.4 µM | 0.0641 µM | 20% | 2.2 | 
C[N+](C)(C)CCC(=O)Nc1ccc2nc3c4[nH]c5ccccc5c4ccn3c(=O)c2c1 | 37.2 µM | 15.3 | 29.2 µM | 0.197 µM | 20% | 2.2 | 
O=C(CCN1CCCCC1)Nc1ccc2nc3c4[nH]c5ccccc5c4ccn3c(=O)c2c1 | 24 µM | 15.3 | 5 µM | 0.051 µM | 20% | 2.2 | 
COc1cc(/C=C/C(=O)CC(=O)/C=C/c2ccc(O)c(OC)c2)ccc1O [CURCUMIN] |  |  | 35.6 µM |  |  |  | 
O=C(CC[n+]1ccccc1)Nc1ccc2nc3c4[nH]c5ccccc5c4ccn3c(=O)c2c1 | 4.29 µM | 15.3 | > 100 µM | 0.0023 µM | 20% | 2.2 | 
O=C(CCCc1ccccc1)Nc1ccc2nc3c4[nH]c5ccccc5c4ccn3c(=O)c2c1 | 24.6 µM | 15.3 |  | 0.136 µM | 20% | 2.2 | 
O=C(CNc1ccccc1)Nc1ccc2nc3c4[nH]c5ccccc5c4ccn3c(=O)c2c1 | 25.3 µM | 15.3 |  | 0.0779 µM | 20% | 2.2 | 
O=C(CCN1CCOCC1)Nc1ccc2nc3c4[nH]c5ccccc5c4ccn3c(=O)c2c1 | 27.6 µM | 15.3 | 3.1 µM | 0.0786 µM | 20% | 2.2 | 
O=C(CN1CCOCC1)Nc1ccc2nc3c4[nH]c5ccccc5c4ccn3c(=O)c2c1 | 28.5 µM | 15.3 | 9.9 µM | 0.0878 µM | 20% | 2.2 | 
